# Measured values published in PubChem BioAssay AID1963856 (Molecular Pharmacology Branch, DTP, NCI, 2024).
# Test system: LG0567-F671-PDC KRAS tumor spheroid viability
# Test: Anticancer human tumor LG0567-F671-PDC patient-derived lung adenocarcinoma cell line growth inhibition [KRAS2]
# Settings: spheroids with HUVEC and MSC; for viability, T/C: stronger effect = lower value
# Procedure, shortened: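 Combination screen of spheroid viability in tumor-cell co-cultures with endothelial (HUVEC) and mesenchymal stem cell stroma. Each agent was tested in half-log dilutions, topping at clinical Cmax or at 10 microM without a known Cmax.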
# [1] = curve of first compound, second compound 0.1 µM
# [2] = curve of first compound, second compound 0.316 µM
# [3] = curve of first compound, second compound 1 µM
# [4] = curve of first compound, second compound 3.16 µM
# [5] = curve of first compound, second compound 10 µM
# [6] = second compound 0.1 µM, first compound 0.0316 µM
# [7] = second compound 0.1 µM, first compound 0.1 µM
# [8] = second compound 0.1 µM, first compound 0.316 µM
# [9] = second compound 0.1 µM, first compound 1 µM
# [10] = second compound 0.1 µM, first compound 3.16 µM
# [11] = second compound 0.1 µM, first compound 10 µM
# [12] = second compound 0.316 µM, first compound 0.0316 µM
# [13] = second compound 0.316 µM, first compound 0.1 µM
# [14] = second compound 0.316 µM, first compound 0.316 µM
# [15] = second compound 0.316 µM, first compound 1 µM
# [16] = second compound 0.316 µM, first compound 3.16 µM
# [17] = second compound 0.316 µM, first compound 10 µM
# [18] = second compound 1 µM, first compound 0.0316 µM
# [19] = second compound 1 µM, first compound 0.1 µM
# [20] = second compound 1 µM, first compound 0.316 µM
# [21] = second compound 1 µM, first compound 1 µM
# [22] = second compound 1 µM, first compound 3.16 µM
# [23] = second compound 1 µM, first compound 10 µM
# [24] = second compound 3.16 µM, first compound 0.0316 µM
# [25] = second compound 3.16 µM, first compound 0.1 µM
# [26] = second compound 3.16 µM, first compound 0.316 µM
# [27] = second compound 3.16 µM, first compound 1 µM
# [28] = second compound 3.16 µM, first compound 3.16 µM
# [29] = second compound 3.16 µM, first compound 10 µM
# [30] = second compound 10 µM, first compound 0.0316 µM
# [31] = second compound 10 µM, first compound 0.1 µM
# [32] = second compound 10 µM, first compound 0.316 µM
# [33] = second compound 10 µM, first compound 1 µM
# [34] = second compound 10 µM, first compound 3.16 µM
# [35] = second compound 10 µM, first compound 10 µM
# 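Further: drug exposure lasted seven days after spheroids formed for three days.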
# 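Wherever viability, T/C is given: 100% = DMSO vehicle control viability.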
smiles,measurement,setting,value
CC(C)NCC(C(=O)N1CCN(c2ncnc3c2C(C)CC3O)CC1)c1ccc(Cl)cc1 (stereo not drawn) + C=CC(=O)N1CCN(c2nc(=O)n(-c3c(C)ccnc3C(C)C)c3nc(-c4c(O)cccc4F)c(F)cc23)C(C)C1,IC50,[1],< 31.6 nM
same,IC50,[2],< 31.6 nM
same,IC50,[3],< 31.6 nM
same,IC50,[4],< 31.6 nM
same,IC50,[5],< 31.6 nM
same,"viability, T/C",[6],31.4%
same,"viability, T/C",[7],25.9%
same,"viability, T/C",[8],19.8%
same,"viability, T/C",[9],14%
same,"viability, T/C",[10],14.5%
same,"viability, T/C",[11],12.8%
same,"viability, T/C",[12],26.5%
same,"viability, T/C",[13],28.5%
same,"viability, T/C",[14],20.9%
same,"viability, T/C",[15],13.7%
same,"viability, T/C",[16],13.7%
same,"viability, T/C",[17],10.6%
same,"viability, T/C",[18],30.6%
same,"viability, T/C",[19],26.5%
same,"viability, T/C",[20],17%
same,"viability, T/C",[21],15.9%
same,"viability, T/C",[22],14.4%
same,"viability, T/C",[23],12.6%
same,"viability, T/C",[24],29.9%
same,"viability, T/C",[25],21.2%
same,"viability, T/C",[26],19.9%
same,"viability, T/C",[27],19.1%
same,"viability, T/C",[28],13.3%
same,"viability, T/C",[29],11.3%
same,"viability, T/C",[30],25.8%
same,"viability, T/C",[31],17%
same,"viability, T/C",[32],15.6%
same,"viability, T/C",[33],13.3%
same,"viability, T/C",[34],15%
same,"viability, T/C",[35],11%
Cn1nccc1Nc1nccc(-c2cc3c(s2)C(C)(C)N(CCN2CCOCC2)C3=O)n1,"viability, T/C",compound 0.0316 µM,95.8% [middle of 5 runs]
same,"viability, T/C",compound 0.1 µM,89.5% [middle of 5 runs]
same,"viability, T/C",compound 0.316 µM,74.6% [middle of 5 runs]
same,"viability, T/C",compound 1 µM,53.3% [middle of 5 runs]
same,"viability, T/C",compound 3.16 µM,37.5% [middle of 4 runs]
same,"viability, T/C",compound 10 µM,30.1% [middle of 5 runs]
same,IC50,curve of compound,1.25 µM [middle of 5 runs]
CC(=O)OC12COC1CC(O)C1(C)C(=O)C(O)C3=C(C)C(OC(=O)C(O)C(NC(=O)OC(C)(C)C)c4ccccc4)CC(O)(C(OC(=O)c4ccccc4)C21)C3(C)C (stereo not drawn),"viability, T/C",compound 0.01 µM,67% [middle of 5 runs]
same,"viability, T/C",compound 0.0316 µM,57.6% [middle of 5 runs]
same,"viability, T/C",compound 0.1 µM,63.3% [middle of 5 runs]
same,"viability, T/C",compound 0.316 µM,63.1% [middle of 5 runs]
same,"viability, T/C",compound 1 µM,73.7% [middle of 5 runs]
same,"viability, T/C",compound 3.16 µM,70.1% [middle of 5 runs]
CCN1CCN(Cc2ccc(Nc3ncc(F)c(-c4cc(F)c5nc(C)n(C(C)C)c5c4)n3)nc2)CC1 + C=CC(=O)N1CCN(c2nc(=O)n(-c3c(C)ccnc3C(C)C)c3nc(-c4c(O)cccc4F)c(F)cc23)C(C)C1,IC50,[1],< 3.16 nM
same,IC50,[2],< 3.16 nM
same,IC50,[3],< 3.16 nM
same,IC50,[4],< 3.16 nM
same,IC50,[5],< 3.16 nM
same,"viability, T/C","second compound 0.1 µM, first compound 0.00316 µM",21.6%
same,"viability, T/C","second compound 0.1 µM, first compound 0.01 µM",21.6%
same,"viability, T/C",[6],17.2%
same,"viability, T/C",[7],18.7%
same,"viability, T/C",[8],19.8%
same,"viability, T/C",[9],24.2%
same,"viability, T/C","second compound 0.316 µM, first compound 0.00316 µM",21.3%
same,"viability, T/C","second compound 0.316 µM, first compound 0.01 µM",19.6%
same,"viability, T/C",[12],16.3%
same,"viability, T/C",[13],16.4%
same,"viability, T/C",[14],18.6%
same,"viability, T/C",[15],25.7%
same,"viability, T/C","second compound 1 µM, first compound 0.00316 µM",21.3%
same,"viability, T/C","second compound 1 µM, first compound 0.01 µM",22.3%
same,"viability, T/C",[18],16.8%
same,"viability, T/C",[19],17.3%
same,"viability, T/C",[20],22%
same,"viability, T/C",[21],23.7%
same,"viability, T/C","second compound 3.16 µM, first compound 0.00316 µM",20.4%
same,"viability, T/C","second compound 3.16 µM, first compound 0.01 µM",21.1%
same,"viability, T/C",[24],18.6%
same,"viability, T/C",[25],15.9%
same,"viability, T/C",[26],20.4%
same,"viability, T/C",[27],33.8%
same,"viability, T/C","second compound 10 µM, first compound 0.00316 µM",22.3%
same,"viability, T/C","second compound 10 µM, first compound 0.01 µM",20.6%
same,"viability, T/C",[30],22.3%
same,"viability, T/C",[31],20.6%
same,"viability, T/C",[32],27.9%
same,"viability, T/C",[33],12.8%
CC1(C)CCC(CN2CCN(c3ccc(C(=O)NS(=O)(=O)c4ccc(NCC5CCOCC5)c([N+](=O)[O-])c4)c(Oc4cnc5[nH]ccc5c4)c3)CC2)=C(c2ccc(Cl)cc2)C1 + CNCc1ccccc1-c1csc(C(C)Nc2nc(C)nc3cc(OC)c(OC)cc23)c1,IC50,[1],1630 nM
same,IC50,[2],1470 nM
same,IC50,[3],1420 nM
same,IC50,[4],< 31.6 nM
same,IC50,[5],< 31.6 nM
same,"viability, T/C",[6],72.6%
same,"viability, T/C",[7],68.1%
same,"viability, T/C",[8],70.6%
same,"viability, T/C",[9],71.3%
same,"viability, T/C",[10],22%
same,"viability, T/C",[11],10.7%
same,"viability, T/C",[12],69.5%
same,"viability, T/C",[13],63.9%
same,"viability, T/C",[14],61.2%
same,"viability, T/C",[15],70.2%
same,"viability, T/C",[16],17.9%
same,"viability, T/C",[17],8.6%
same,"viability, T/C",[18],69.4%
same,"viability, T/C",[19],77.7%
same,"viability, T/C",[20],62%
same,"viability, T/C",[21],64.3%
same,"viability, T/C",[22],18.3%
same,"viability, T/C",[23],2.9%
same,"viability, T/C",[24],0.33%
same,"viability, T/C",[25],0.44%
same,"viability, T/C",[26],0.44%
same,"viability, T/C",[27],2.14%
same,"viability, T/C",[28],1.73%
same,"viability, T/C",[29],0.34%
same,"viability, T/C",[30],0.43%
same,"viability, T/C",[31],0.89%
same,"viability, T/C",[32],0.6%
same,"viability, T/C",[33],0.39%
same,"viability, T/C",[34],2.18%
same,"viability, T/C",[35],0.44%
CC1(C)CCC(CN2CCN(c3ccc(C(=O)NS(=O)(=O)c4ccc(NCC5CCOCC5)c([N+](=O)[O-])c4)c(Oc4cnc5[nH]ccc5c4)c3)CC2)=C(c2ccc(Cl)cc2)C1 + C=CC(=O)N1CCN(c2nc(OCC3CCCN3C)nc3c2CCN(c2cccc4cccc(C)c24)C3)CC1CC#N,IC50,"curve of first compound, second compound 0.0316 µM",< 31.6 nM
same,IC50,[1],< 31.6 nM
same,IC50,[2],< 31.6 nM
same,IC50,[3],< 31.6 nM
same,IC50,[4],< 31.6 nM
same,"viability, T/C","second compound 0.0316 µM, first compound 0.0316 µM",31.1%
same,"viability, T/C","second compound 0.0316 µM, first compound 0.1 µM",37.4%
same,"viability, T/C","second compound 0.0316 µM, first compound 0.316 µM",35%
same,"viability, T/C","second compound 0.0316 µM, first compound 1 µM",39.5%
same,"viability, T/C","second compound 0.0316 µM, first compound 3.16 µM",12.7%
same,"viability, T/C","second compound 0.0316 µM, first compound 10 µM",5.63%
same,"viability, T/C",[6],30.2%
same,"viability, T/C",[7],36.3%
same,"viability, T/C",[8],29.7%
same,"viability, T/C",[9],28.7%
same,"viability, T/C",[10],10.7%
same,"viability, T/C",[11],5.62%
same,"viability, T/C",[12],34%
same,"viability, T/C",[13],32.6%
same,"viability, T/C",[14],32%
same,"viability, T/C",[15],27.7%
same,"viability, T/C",[16],6.23%
same,"viability, T/C",[17],2.16%
same,"viability, T/C",[18],34.2%
same,"viability, T/C",[19],33.5%
same,"viability, T/C",[20],33.4%
same,"viability, T/C",[21],31.9%
same,"viability, T/C",[22],2.97%
same,"viability, T/C",[23],0.47%
same,"viability, T/C",[24],21.8%
same,"viability, T/C",[25],16.1%
same,"viability, T/C",[26],8.41%
same,"viability, T/C",[27],0.74%
same,"viability, T/C",[28],0.13%
same,"viability, T/C",[29],0.89%
